Data: patent publication US20210395651A1, “COMPOUNDS STABILIZING HYDROLASES IN LIQUIDS” (BASF SE, priority 2018, published 2021)

Target: T1, Lipolase® 100L (Thermomyces lanuginosus, UniProt O59952)
T1 construct: purchased Sigma-Aldrich
T1 sequence (O59952 23-291): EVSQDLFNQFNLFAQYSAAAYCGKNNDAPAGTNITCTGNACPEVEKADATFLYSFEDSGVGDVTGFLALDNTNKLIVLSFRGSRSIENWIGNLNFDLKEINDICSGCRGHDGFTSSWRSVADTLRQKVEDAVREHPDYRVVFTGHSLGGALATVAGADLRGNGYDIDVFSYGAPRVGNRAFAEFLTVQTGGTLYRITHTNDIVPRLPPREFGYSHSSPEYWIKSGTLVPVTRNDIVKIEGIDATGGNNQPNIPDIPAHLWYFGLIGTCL
Experiment: Lipase storage stability in liquid formulations at 37° C. (pNP-valerate activity)
Assay type: biochemical, Thermomyces lanuginosa
Conditions: for lipase activity, 3 d: 3 d storage at 37° C.; for lipase activity, 7 d: 7 d storage at 37° C.; for lipase activity, 14 d: 14 d storage at 37° C.; for lipase activity, 21 d: 21 d storage at 37° C.; for lipase activity, 28 d: 28 d storage at 37° C.; for lipase activity, 35 d: 35 d storage at 37° C.; for lipase activity, T0: relative to 100% value of reference formulation at time 0
Method: The storage stability of Lipase was assessed at 37° C.
Base test formulations were manufactured by making base formulations I to V by mixing the components according to Table 1.
The respective component (a) or comparative compound was added, if applicable, to the respective base formulation in amounts as indicated in Table 1.
Lipase used: Lipolase® 100L (CAS-No. 9001-62-1, EC-No. 232-619-9) was purchased from Sigma-Aldrich.
The amount of lipase as provided in Table 1 refers to active protein.
Water was added to accomplish the balance to 100.
Lipolase activity at certain points in time as indicated in Table 2 was be determined by employing pNitrophenol-valerate (2.4 mM pNP-C5 in 100 mM Tris pH 8.0, 0.01% Triton X100) as a substrate. The absorption at 405 nm was measured at 20° C. every 30 seconds over 5 minutes.
The slope (absorbance increase at 405 nm per minute) of the time dependent absorption-curve is directly proportional to the activity of the lipase.
The […] activity values provided in Table 2 were calculated referring to the 100% value determined in the reference formulation at the time 0.
The nomenclature of formulations is as follows: the Roman number before the full stop characterizes the base formulation, the Arabian number the type of compound (A.# compound according to invention (component (a)); (B.#) comparative compound).

[1] = base formulation I. (Lipolase 0.2 wt%, tested compound 2.5 wt%)
[2] = base formulation IV. (Lipolase 0.2 wt%, tested compound 2.0 wt%)
[3] = base formulation V. (Lipolase 0.2 wt%, tested compound 2.0 wt%)
[4] = base formulation II. (Lipolase 0.2 wt%, tested compound 2.5 wt%)
[5] = base formulation III. (Lipolase 0.2 wt%, tested compound 2.0 wt%)

Row | SMILES | lipase activity, 3 d [2] | lipase activity, 7 d [2] | lipase activity, 14 d [2] | lipase activity, 21 d [2] | lipase activity, 28 d [2] | lipase activity, 35 d [2] | lipase activity, T0 [2] | lipase activity, 3 d [3] | lipase activity, 7 d [3] | lipase activity, 14 d [3] | lipase activity, 21 d [3] | lipase activity, 28 d [3] | lipase activity, 35 d [3] | lipase activity, T0 [3] | lipase activity, 3 d [4] | lipase activity, 7 d [4] | lipase activity, 14 d [4] | lipase activity, 21 d [4] | lipase activity, 28 d [4] | lipase activity, 35 d [4] | also measured
1 | CCCCOC(=O)CC(CC(=O)OCCCC)(OC(C)=O)C(=O)OCCCC [A.4, Acetyltributylcitrate] | 97% | 95% | 93% | 89% | 86% | 83% | 101% | 100% | 94% | 90% | 85% | 80% | 74% | 101% |  |  |  |  |  |  | lipase activity, 3 d [1]: 104%; lipase activity, 7 d [1]: 99%; lipase activity, 14 d [1]: 93%; lipase activity, 21 d [1]: 88%; lipase activity, 28 d [1]: 83%; lipase activity, 35 d [1]: 78%; lipase activity, T0 [1]: 102%
2 | CCOC(=O)CC(O)(CC(=O)O)C(=O)O (centres unmarked) [A.6, Monoethylcitrate] | 96% | 92% | 89% | 86% | 85% | 78% | 98% |  |  |  |  |  |  |  | 100% | 95% | 91% | 84% | 80% | 71% | lipase activity, T0 [4]: 102%; lipase activity, 3 d [5]: 96%; lipase activity, 7 d [5]: 91%; lipase activity, 14 d [5]: 87%; lipase activity, 21 d [5]: 82%; lipase activity, 28 d [5]: 79%; lipase activity, 35 d [5]: 74%; lipase activity, T0 [5]: 96%
3 | O=C(CC(O)(CC(=O)OCc1ccccc1)C(=O)OCc1ccccc1)OCc1ccccc1 [A.8, Tribenzylcitrate] |  |  |  |  |  |  |  | 96% | 93% | 88% | 85% | 82% | 77% | 98% | 94% | 90% | 87% | 83% | 81% | 77% | lipase activity, T0 [4]: 97%
